# Test results published in article PMC4635624, “In vitro and in vivo single-agent efficacy of checkpoint kinase inhibition in acute lymphoblastic leukemia” (Journal of Hematology & Oncology, 2015).
# Experiments:
# Format in all cases: cell-based, human
# RPMI-8402 (T-ALL) cells = assay: Cell viability assay (WST-1); conditions: RPMI-8402, 24 h exposure, p53 mutated
# Procedure: (§1) B-/T-ALL cell lines were incubated with increasing concentrations of drug (5–1000 nM) for 24 and 48 h.
# (§2) In order to assess the cell viability after treatment with PF-00477736 (Pfizer), ALL cell lines were seeded in 96-well plates at 50,000 cell/100 μl/well with increasing concentrations of drug (0.005–2 μM) for 24 and 48 h and incubated at 37 °C. Cell viability was assessed by adding WST-1 reagent (Roche Applied Science, Basel, Switzerland) to the culture medium at 1:10 dilution. Cells were incubated at 37 °C, and the optical density was measured by microplate ELISA reader at λ = 450 after 3 h. The amount of the formazan formed directly correlates to the number of metabolically active cells. All viability experiments were performed in triplicates and repeated in least two separated experiments. In ex-vivo primary leukemia cells, the effects on cell viability were assessed by counting viable and non-viable cell numbers by the trypan blue dye exclusion method. Cells were seeded in six-well plates at 500,000 cell/1 ml with increasing concentrations of drug (0.1, 0.5, and 1 μM) for 24 h and incubated at 37 °C. Cellular viability was calculated as a percentage of the viable cells compared to the untreated controls (DMSO 0.1 %).
# NALM-6 (B-ALL) cells = assay: Cell viability assay (WST-1); conditions: NALM-6, 24 h exposure, TP53 wild-type
# Procedure: as §1, §2
# B- and T-ALL cell lines = assay: Annexin V/PI staining of apoptotic cells; conditions: 0.1, 0.5, 1 μM (0.05, 0.1, 0.2 μM for BV-173 and RPMI-8402), 24 and 48 h; proportional to dose and exposure time
# Procedure: In order to assess whether cytotoxicity was correlated to increased susceptibility to apoptosis, B-/T-ALL cell lines were incubated with increasing concentrations of drug (0.1, 0.5, and 1 μM and 0.05, 0.1, and 0.2 μM only for BV-173 and RPMI-8402, respectively) for 24 and 48 h. […] The induction of apoptosis by PF-00477736 was also assessed by the detection of poly (ADP-ribose) polymerase (PARP) cleavage by Western blot analysis.
# According to the WST-1 results, three different increasing concentrations of PF-00477736 were used to treat leukemia cells lines in order to detect and discriminate apoptotic, necrotic and dead cells. Cell lines were seeded in 12-well plates at 500,000 cell/1 ml with increasing concentrations of drug (0.1, 0.5 and 1 μM and 0.05, 0.1 and 0.2 μM only for BV-173 and RPMI-8402) for 24 and 48 h and incubated at 37 °C. Following the treatment, cells were harvested and stained with Annexin V/PI according to the manufacturer’s instruction (Roche). The percentage of Annexin V-PI-positive cells was determined within 1 × 10^4 cells of the population by flow cytometry (FACSCanto II, BD Biosciences Pharmingen, San Jose, CA, USA). The mean percentage of Annexin V-PI-positive cells and standard error measurement was calculated from at least two separate experiments.
# [1] = test system: Chk1 pathway (Chk1-Cdc25-Cdc2) in BV-173 and NALM-6 cells; assay: Western blot analysis of Chk1 pathway
# Source text: In order to assess whether PF-00477736 efficiently targeted Chk1 pathway, we examined the changes in the downstream phosphorylation of the phosphatase Cdc25C and cyclin-dependent kinase, Cdc2. Moreover, Chk1 itself and γ-H2A.X, which is a marker of stalling replication forks and checkpoint abrogation-induced apoptosis, have been assessed. Functional analyses were initially performed on the most sensitive (BV-173) and the most resistant (NALM-6) B-ALL cell lines, as determined by the viability and apoptosis analyses. Specifically, BV-173 cells were treated with 0.05, 0.1, and 0.2 μM and NALM-6 with 0.1, 0.5, and 1 μM of PF-00477736 for 24 h (Fig. 3a). In the second analysis, BV-173 and NALM-6 cells were treated with the dose of PF-00477736 that goes near to the IC50 (0.1 μM for BV-173 and 1 μM for NALM-6) for 18, 24, 30, and 48 h (Fig. 3b). Thereafter, the same molecular targets have been assessed on all B- and T-ALL cell lines using the dose that goes near to the IC50 (Additional file 1: Figure S4). Active Chk1 phosphorylates Cdc25C at serine 216 throughout the interphase and upon G2 checkpoint activation. This leads to the nuclear export of Cdc25C and its subsequent cytoplasmic sequestration by 14-3-3 protein, which prevents the activation of the downstream target of Cdc25C, the cyclin B/Cdc2 kinase that is responsible for G2/M transition. […] Although the increment of the phosphorylated forms of Chk1 (Ser317 and Ser345) as a consequence of genomic damage amplification, the complete inhibition of Chk1 functionality was confirmed by the progressive reduction of the auto-phosphorylated form of Chk1 (Ser296) in an early time point analysis.
# To gain insight into the molecular mechanisms responsible for cell death following treatment, functional analyses by Western blot were performed. Leukemia cell lines were plated in six-well plates at 500,000 cell/1 ml with increasing concentrations of drug for 24 h and incubated at 37 °C. After the treatment, the cells were collected and lysate using a specific buffer made of KH2PO4 0.1 M (pH 7.5), Igepal 1 % (NP-40), β-glicerofosfato 0.1 mM, and complete protease inhibitor cocktail 1× (Roche Diagnostics). […] Finally, all these antibodies were detected using the enhanced chemiluminescence kit ECL (GE) and the compact darkroom ChemiDoc-It (UVP).
# [2] = test system: Chk1 pathway in normal bone marrow mononuclear cells; assay: Western blot analysis in normal cells; conditions: in contrast to leukemia cells
# BV-173 cells = assay: γ-H2A.X immunofluorescence analysis
# Procedure: The so-called hyper-γ-H2A.X-positive cells loose the typical foci signal of γ-H2A.X and emit a much higher and diffuse signal of γ-H2A.X positivity.
# NALM-6 and BV-173 cells were seeded to poly-D lysine-coated slides, fixed with 4 % PFA (paraformaldehyde), and stained at 37 °C with a mouse anti-H2A.X-Phosphorylated Alexa 647 conjugated antibody (BioLegend). Then, they were treated with DAPI (4.6 diamidino-2-phenylindole; Sigma Aldrich), and the slides were mounted with Mowiol (Calbiochem). Images were acquired with wide field fluorescence microscope Olympus BX61 fully motorized driven by Metamorph software, and the analysis was performed using the freeware ImageJ software.
smiles,measurement,setting,value
Cn1cc(-c2[nH]c3cc(NC(=O)[C@H](N)C4CCCCC4)cc4c3c2C=NNC4=O)cn1 [PF-00477736],IC50,RPMI-8402 (T-ALL) cells,57.4 nM
same,IC50,NALM-6 (B-ALL) cells,1420 nM
same,apoptosis (Annexin V/PI-positive cells),B- and T-ALL cell lines,significant increase of apoptosis
same,phosphorylated forms of Chk1 (Ser317 and Ser345),"[1]; BV-173 0.05-0.2 μM, NALM-6 0.1-1 μM, 24 h",dose-dependently increased
same,γ-H2A.X level,"[1]; Western blot and immunofluorescence, 18, 24, 30, 48 h at dose near IC50",time-dependently increase of γ-H2A.X
same,auto-phosphorylated form of Chk1 (Ser296),"[1]; after 3 h of treatment, BV-173 and NALM-6, vs untreated",drastically reduced
same,phosphorylated Cdc25c (Ser216) and Cdc2 (Tyr 15) levels,"[1]; dose- and time-dependent, BV-173 0.05-0.2 μM, NALM-6 0.1-1 μM",decreased levels of phosphorylated Cdc25c (Ser216) and Cdc2 (Tyr 15)
same,"phosphorylation of Chk1 (Ser345), Cdc25c (Ser216), Cdc2 (Tyr 15) and phospho-H2A.X",[2],did not induce protein phosphorylation changes
same,"fold change of mean value intensity of γ-H2A.X, treated vs untreated",BV-173 cells; BV-173 γ-H2A.X positive cells,five-fold
same,hyper-γ-H2A.X-positive cells among γ-H2A.X-positive cells,"BV-173 cells; treated cells, 1.8 % in the untreated controls",~6.5%
